Data taken from patent US20260242338A1, “CRYSTALS OF N[…]” (KYOTO DRUG DISCOVERY & DEVELOPMENT CO., LTD., priority 2022, published 2026).
Read-outs that look alike come from different tables or passages of the source.

Type: physicochemical
Protocol: X-ray powder diffraction data were acquired using PhotonMax high-flux 9 KW rotating cathode X-ray generator (SmartLab 9 KW, Rigaku). All diffractograms were acquired using copper radiation (CuKα, 45 kV/200 mA, λ=1.5418 Å) and using KB filter to reduce unneeded radiation. The measurement was carried out by placing the sample gently crushed in an agate mortar on a measurement stand and then scanning the sample under 2θscanning conditions with a scanning range of 3° to 40°, a scanning speed of 20°/min, and a step size of 0.02°.
X-ray powder diffraction data were acquired using a diffractometer (MiniFlex 600, Rigaku). All diffractograms were acquired using copper radiation (CuKα, 40 kV/15 mA, λ=1.5418 Å) and using KB filter to reduce unneeded radiation. Scanning was carried out in 2θ with a scanning range of 5° to 50°, a scanning speed of 5°/min, and a step size of 0.02°.
The water content was measured using a coulometric moisture meter (CA-100, Nitto Seiko Analytech), using about 0.5 g of the solid sample, Aquamicron GEX as the solvent, and 3 mg of Aquamicron SS as a titrant.
The water content was measured using a Karl Fischer moisture meter (AQUACOUNTER AQV-2100, HIRANUMA) equipped with an electrolytic bath stirrer for iodine generation and a constant current potentiometer, using about 0.2 g of the solid sample, Aquamicron GEX as the solvent, and 3 mg of Aquamicron SS-Z as a titrant.
The crystal of KUS121 dihydrate was subjected to a normal storage stability test (25° C./60% RH, 18 months) and a storage stability test under accelerated test condition (40° C./75% RH, 6 months). For comparison, the crystal of KUS121 anhydride was also subjected to storage stability tests under accelerated test condition (40° C./75% RH, 6 months) and under ambient temperature condition (30 months).

[1] = 40° C./75% RH (6 months), dihydrate

Row | SMILES | Content (40° C./75% RH (6 months)) | Purity test (40° C./75% RH (6 months)) | Water content (40° C./75% RH (6 months)) | Water content (Ambient temperature (30 months)) | Content (Initial) | Purity test (Initial) | Water content (Initial) | Content (25° C./60% RH (18 months)) | Related substance (25° C./60% RH (18 months)) | Water content (25° C./60% RH (18 months)) | Related substance (40° C./75% RH (6 months)) | Content [1] | Water content [1] | Related substance (Initial) | Content (Initial, dihydrate) | Water content (Initial, dihydrate) | Storage stability (overall statement) (compared with other hydrate crystals, accelerated test condition)
1 | Cc1cc(F)ccc1-c1ccc(/N=N/c2cc(S(=O)(=O)[O-])c3ccccc3c2N)cn1.[Na+] [Crystal of KUS121 anhydride, Sodium 4-amino-3-[6-(4-fluoro-2-methylphenyl)pyridin-3-ylazo]naphthalene-1-sulfonate] | 100.8% | 99.5% | 3.0% | 9.1% | 98.2% | 99.5% | 0.8% |  |  |  |  |  |  |  |  |  | 
2 | Cc1cc(F)ccc1-c1ccc(/N=N/c2cc(S(=O)(=O)[O-])c3ccccc3c2N)cn1.[Na+] [Crystal of KUS121 dihydrate, sodium 4-amino-3-[6-(4-fluoro-2-methylphenyl)pyridin-3-ylazo]naphthalene-1-sulfonate dihydrate] |  |  |  |  |  |  |  | 99.6% | 0.11% | 7.4% | 0.09% | 99.6% | 7.4% | 0.07% | 99.7% | 7.4% | had better storage stability than other hydrate crystals, and was extremely stable even under accelerated test condition
